The results in this text go back to PubChem BioAssay (NCI).

Assay in all cases: NCI tumour cell line growth inhibition, 48 h
Assay [1] relates to SK-MEL-2 melanoma.
The subject of assay [2] is SNB-19 CNS.
The test system of assay [3] is K-562 leukemia.
In assay [4] the test system is PC-3 prostate.
For assay [5], the system named is NCI/ADR-RES ovarian.
Assay [6] concerns HCT-116 colon.
Assay [7] relates to TK-10 renal.
The subject of assay [8] is HL-60(TB) leukemia.
The test system of assay [9] is M14 melanoma.
Assay [10] has as its system BT-549 breast.

Several values for one entry are separate records, joined by “and”; a condition that tells them apart may be missing. Equal entries are not always repeated.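 All cell lines were grown in 96-well plates and treated with compound for 48 hours. GI50 is the concentration that inhibits growth by half. TGI is the concentration that stops growth completely.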

Consider `O=Nc1c(-c2cccc([N+](=O)[O-])c2)nc2ncccn12`, for which the GI50 in assay [1] was 14.7 µM; in assay [2], 18 µM; in assay [3] it was 1.28 µM; in assay [4], 13.7 µM; in assay [5], 15.9 µM; in [6], 3.03 µM. Besides, the GI50 in assay [7] was 11 µM; in assay [8], 2.32 µM; in [9] it was 12 µM; in [10], 15.8 µM. Moreover, the TGI was determined as 38.1 µM in [1]; 39.6 µM in assay [2]; 4.15 µM in assay [3]; 36.3 µM in [4]; 71.7 µM in assay [5]; 13.3 µM in assay [6]. Also, the TGI was found to be 30.2 µM in [7], 6.15 µM in [8], 26.8 µM in assay [9] and 32.1 µM in assay [10].

As to `Nc1nc(Cl)nc2c1ncn2C1O[C@H](CO)[C@@H](O)[C@@H]1F` (stereo partly specified), the GI50 in [1] is > 100 µM; in assay [2] it was 0.216 µM; in [3] it was 3.79 µM; in assay [4] it was > 24.6 µM; in assay [5] it was 0.0498 µM; in assay [6], 0.13 µM. Further, the results for the GI50 in assay [8], in assay [9] and in assay [10] were 0.0305 µM, 0.0876 µM and 0.091 µM, respectively. The TGI in assay [1], in assay [2], in assay [3], in assay [4], in [5] and in [6] was > 100 µM throughout. For the same compound, the TGI in [7] is > 100 µM; in assay [8], 0.14 µM; in assay [9], 0.292 µM; in assay [10], 0.702 µM.

`COc1ccc(/C=C(/C(=O)N2CCNCC2)c2cc(OC)c(OC)c(OC)c2)cc1O`: the GI50 in assay [1] is 3.51 µM; in [2], 3.91 µM; in assay [3], 1.6 µM; in [4], 2.72 µM; in assay [5], > 100 µM; in assay [6], 3.45 µM. The GI50 in assay [7] was 79.4 µM; in assay [8], 1.87 µM; in assay [9] it was 3.83 µM; in [10], 4.22 µM. Also, the TGI in assay [1], in assay [2], in assay [3], in [4], in [5] and in [6] was > 100 µM in each case. The TGI in assay [7] is > 100 µM; in [8], 5.5 µM; in assay [9], > 100 µM; in assay [10], 48.4 µM.

`CN(C)CCn1cc(-c2ccc3c(Nc4ccc(CC(=O)Nc5cccc(F)c5)cc4)ncnc3c2)cn1`: the GI50 in assay [1] is > 10 µM; in [2], 1.34 µM; in assay [3], 2.72 µM; in [4], 1.75 µM; in assay [5], > 10 µM; in [6] it was 1.26 µM. In addition, the GI50 was 1.62 µM in assay [7], 1.95 µM in assay [8], 1.49 µM in assay [9] and 4.78 µM in assay [10]. In addition, the TGI in assay [1] is > 10 µM; in [2] it was 5.39 µM; in assay [3], > 10 µM; in assay [4] it was 7.92 µM; in [5], > 10 µM; in assay [6], 2.72 µM. The TGI in [7] is 4.21 µM; in [8] it was 4.85 µM; in [9], 3.26 µM; in assay [10], > 10 µM.

As to `Cc1nc2cc(O)c(O)cc2cc1Oc1ccc(NC(=O)Nc2ccc(Cl)c(Cl)c2)cc1`, the GI50 is 8.83 µM in assay [1]; 10.1 µM in assay [2]; 6.93 µM in assay [3]; 4.36 µM in assay [4]; 8.74 µM in assay [5]; 2.24 µM in assay [6]. Besides, the GI50 is 14.2 µM in assay [7], 9.02 µM in assay [8], 5.97 µM in [9] and 7.5 µM in [10]. The TGI in assay [1] is 21.1 µM; in assay [2], > 32.5 µM; in assay [3] it was 29.6 µM; in assay [4], > 32.5 µM; in assay [5] it was > 32.5 µM; in assay [6] it was 13.6 µM. The TGI is > 32.5 µM in assay [7], 22.4 µM in [8], 13.8 µM in [9] and > 32.5 µM in assay [10].

On to `COC(=O)c1c(-c2ccccc2)csc1NC(=O)c1c(-c2ccccc2)noc1C`, for which the TGI in assay [1], in assay [2], in assay [3], in assay [4], in assay [5] and in assay [6] was > 100 µM throughout. The TGI in [7], in [8], in [9] and in assay [10] was > 100 µM in each case. Moreover, the GI50 in assay [2] was 1.07 µM; in assay [3] it was 0.409 µM; in assay [4] it was 1.28 µM; in [5], 1.5 µM; in assay [6], 0.379 µM; in assay [7], > 100 µM. The GI50 in assay [8] was 1.32 µM; in assay [9] it was 6.86 µM.

Turning to `O=C1NC(=NCc2ccccn2)S/C1=C\c1ccc2ncccc2c1`, the GI50 in assay [1] is 10.7 µM; in assay [2] it was 10.7 µM; in [3] it was 8.29 µM; in assay [4] it was > 25 µM; in assay [5], 16.9 µM; in [6] it was 8.86 µM. Besides, the GI50 in assay [7] was 6.06 µM; in assay [8], 6.56 µM; in [9], 11.6 µM; in [10] it was 9.23 µM. The TGI was > 22.8 µM in [1]; > 25 µM in assay [2]; > 25 µM in assay [3]; > 25 µM in assay [4]; > 25 µM in assay [5]; > 25 µM in assay [6]. In addition, the TGI in assay [7] was > 20.2 µM; in [8], > 25 µM; in [9] it was > 25 µM; in [10] it was > 25 µM.

As for `Cn1c(=O)c(F)c(Nc2ccc(I)cc2F)c2c(=O)n(C[C@@H](O)CO)cnc21`, the GI50 was < 0.01 µM and 0.00295 µM in [1]; 4.73 µM in [2]; 0.172 µM and 0.112 µM in [3]; 16.4 µM in assay [4]; 12.7 µM and > 2.46 µM in assay [5]; < 0.01 µM and 0.00832 µM in assay [6]. The GI50 in [8] is < 0.01 µM and 0.00141 µM; in assay [9], < 0.01 µM and 0.00175 µM; in assay [10], 12.6 µM. Besides, the TGI in assay [1] was < 0.0252 µM and 0.0277 µM; in assay [2] it was > 100 µM; in assay [3], > 84 µM; in [4], 71.5 µM and > 4.12 µM; in assay [5], > 100 µM; in [6], 11.5 µM. Moreover, the TGI was 26.4 µM in assay [7], 23.1 µM in [8], 0.0211 µM in [9] and > 95.8 µM in assay [10].

Regarding `Cn1c(=O)c(Cc2ccc(F)cc2F)cc2cnc(NC3CCOCC3)nc21`, the GI50 was > 25 µM in assay [1]; 24.3 µM in assay [2]; > 20.1 µM in [3]; > 25 µM in [4]; > 15.5 µM in [5]; > 25 µM in [6]. For the same compound, the GI50 is 14.5 µM in [7], > 25 µM in assay [8], > 25 µM in assay [9] and > 16.6 µM in [10]. For the same compound, the TGI in assay [1], in assay [2], in assay [3], in [4], in [5] and in assay [6] was > 25 µM in each case. Moreover, the TGI in [7], in assay [8], in [9] and in [10] was > 25 µM each time.

In the case of `O=C1c2cccc3cccc(c23)C(=O)N1CCCCOc1ccc(-c2nc3ccc(N4CCOCC4)cc3[nH]2)cc1`, the GI50 in [1] is 15.7 µM; in [2] it was 7.91 µM; in assay [3] it was 3.25 µM; in [4], 3.16 µM; in assay [5] it was 10.3 µM; in [6], 1.76 µM. For the same compound, the GI50 was 3.57 µM in assay [7], 2.29 µM in assay [8], 2.88 µM in assay [9] and 1.49 µM in [10]. Besides, the TGI was 53.6 µM in assay [1]; > 48.5 µM in assay [2]; 9.47 µM in assay [3]; 23.6 µM in assay [4]; > 83.9 µM in assay [5]; 3.32 µM in assay [6]. In addition, the TGI in [7] came to 13.4 µM; in assay [8] it was 4.55 µM; in assay [9], 7.55 µM; in assay [10], 3.15 µM.

`COc1ccc(-n2c(N)c(C(=O)NCCN3CCOCC3)c3nc4ccccc4nc32)cc1OC`: the GI50 was 2.94 µM in [1]; 10.9 µM in assay [2]; 2.96 µM in [3]; 11.7 µM in [4]; 36 µM in assay [5]; 3.49 µM in [6]. The GI50 was 31.9 µM in [7], 21.8 µM in assay [8], 15.1 µM in [9] and 27.6 µM in [10]. Also, the TGI is 42.8 µM in [1]; > 100 µM in assay [2]; > 100 µM in assay [3]; 87.3 µM in [4]; > 100 µM in [5]; > 100 µM in assay [6]. Also, the TGI in assay [7], in [8], in assay [9] and in assay [10] was > 100 µM each time.
